Measured values as given in patent US20090209605A1, “NEMATICIDAL COMPOSITIONS” (Devgen N.V., priority 2004, published 2009).

Legend:
Format in all cases: in vivo
tomato (cv. Rio Grande) = assay: Pot Assay 2: root development (vigor of roots) of tomato; details: RATE 0.05 mg; visual value 0 to 10 (10 equal to control)
Experimental: Phytotoxicity of compounds as described herein when used as a nematicide, was measured as follows. […] At that moment, plant emergence was assessed for the plants treated with any of the compounds as described herein, by counting the number of plants per compound-concentration.
Vigor of roots was also assessed once the plants are well established so as not to loose plants. To assess vigor of the plants or roots, a visual value ranging from 0 to 10 (0 no vigor, 10 equal to control) was scored per compound-concentration.

[1] = system: root-knot nematode (Meloidogyne spp); assay: Nematicide field trial on cucumber: root galling and yield; details: Product Rate 1500 g ai/ha
Experimental: Open ground grown cucumber (Cucumis sativus cv Carine) were grown on sandy soil with a natural root-knot nematode (Meloidogyne spp) population. Soil samples, collected prior to planting, contained on average 8 J2 juveniles per 100 g soil. A program of 4 applications with intervals of about 14 days was started six days after transplantation.
(§1) An experimental pattern at Complete Randomized Blocks with four replicas was adopted. Besides the experimental products, each test also included an untreated control and a treatment with the standard commercial product VYDATE 10L (10%) applied in accordance to label instructions.
[…] The level of nematode attack of the root system at the time of harvesting was assessed by means of the lamberti scoring.

[2] = system: root-knot nematode (Meloidogyne spp); assay: Nematicide field trial on tomato: root galling and yield; details: for Average root galling: 0-5 Lamberti scale
Experimental: Open field tomatoes (Lycopersicon esculentum, variety incas) were grown on sandy soil with a natural root-knot nematode (Meloidogyne spp) population. Soil samples, collected prior to planting, contained on average 113 J2 juveniles per 100 g soil. A program of 5 applications with intervals of about 14 days was started two days after transplantation.
as §1
The read-outs are the average yield of the marketable tomatoes per plant (Table 7). The level of nematode attack of the root system at the time of harvesting was assessed by means of the lamberti scoring.

Meloidogyne incognita = assay: Root infestation on agar plate: root knot count on potato microplant roots; details: 60 μM in agar, galls counted 5 weeks after inoculation, four replicates
Procedure, shortened: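 Potato cv. Desirée microplants were grown 2-3 weeks on agar at 20 °C, and compound diffused in from DMSO for 2 days (60 μM in agar). Plates were then inoculated with ~400 axenic M. incognita juveniles. Root galls were counted 5 weeks later in the dark at 20 °C, with four replicates per compound and root toxicity noted.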

[3] = Product Rate 4 (footnote g ai/ha)
[4] = Product Rate 8 (footnote g ai/ha)

CCCCc1c(C)nc(NCC)nc1OS(=O)(=O)N(C)C [XLIII]
ROOT DEV. (tomato (cv. Rio Grande)): 7.8 | Average yield of marketable fruits [1]: 8.7 kg/plant/pot | Average root galling ([1]; 0-5 Lamberti scale): 1.5 | Average yield of marketable fruits [2, 3]: 1.28 kg/plant/pot | Average root galling [2, 3]: 1.1 | Average yield of marketable fruits [2, 4]: 1.25 kg/plant/pot | Average root galling [2, 4]: 1.6 | Root knot count, average of the replicate counts (Meloidogyne incognita): 8
